Source: publication PMC11548477, “Cathepsin B- and L-like Protease Activities Are Induced During Developmental Barley Leaf Senescence” (Plants, 2024)
Where two headings read alike, the source gives them in different places. Where a SMILES comes first, the peptide text is derived from it. [ ]: non-standard residue; d: D form. The star is where a group is joined. Sta = CC(C)C[C@H](N)[C@@H](O)CC(=O)O; Isovaleryl = CC(C)CC(=O)*

Assays:
[1] = system: cathepsin B-like activity (Z-RR-AMC cleavage) in crude protein extract from barley leaves; assay: Z-RR-AMC cleavage by crude protein extract from barley leaves; type: biochemical, Hordeum vulgare
Description: (§1) Frozen leaves were homogenized with a pre-chilled pestle and mortar in cold extraction buffer (0.1 M Tris–HCl, pH 7.4, 2 mM DTT) at a ratio of 167 mg of leaves:1 mL buffer. The homogenate was centrifugated at 20,000× g for 30 min at 4 °C. The supernatant, which was kept in an ice bath, was used as a sample for measurements of peptidase activity and protein content.
(§2) Fluorogenic substrates Z-FR-AMC to determine cathepsin B- and L-like activity, and Z-RR-AMC to determine cathepsin B-like activity, were used. These substrates show fluorescence when AMC is released as a consequence of the hydrolysis of the Arg-AMC bond. The emitted fluorescence was detected with a SpectraMax M2 microplate reader (Molecular Devices, San Jose, CA, USA) with λex = 360 nm and λem = 460 nm. Before use, the substrates were dissolved in DMSO at 10 mM and frozen at −20 °C. The measurements were made in 96-well black microplates (PerkinElmer Inc, Waltham, MA, USA), and each well contained a 100 μL final volume of an appropriate 0.1 M buffer with DTT (2 mM), extract (1.6 mg of fresh weight), and substrate (25 μM). The reaction was initiated by the addition of the substrate. The final concentration of DMSO in microplate wells was 1% in all the assays. The assays were conducted at room temperature, and relative fluorescence readings were recorded over a period of 10 min.
(§3) For the inhibition assays, an inhibitor (1 µL of stock solution in DMSO) at different concentrations was added to the reaction mixture. For all inhibitors tested, the concentration of inhibitor that caused 50% inhibition of the enzymatic reaction (IC50) was calculated by plotting % inhibition against the logarithm of inhibitor concentration (at least six points). The data are presented as the mean values of at least three independent experiments.

[2] = system: cathepsin B- and L-like activity (Z-FR-AMC cleavage) in crude protein extract from barley leaves; assay: Z-FR-AMC cleavage by crude protein extract from barley leaves; type: biochemical, Hordeum vulgare
Description: as §1, §2, §3

[3] = molecular target: aminopeptidase B and cathepsin H-like activity (R-AMC cleavage) in crude protein extract from barley leaves; assay: R-AMC cleavage by crude protein extract from barley leaves; type: biochemical, Hordeum vulgare; conditions: for IC50 / inhibition of R-AMC cleavage: week-3 leaf extract; for concentration up to which no activity on R-AMC cleavage was seen: week-3 leaf samples
[4] = system: aminopeptidase in barley extracts; parameters: method as in PMID 10681066, PMID 21787929; conditions: cited from earlier work
[5] = system: aminopeptidase in alfalfa extracts; parameters: method as in PMID 10681066, PMID 21787929; conditions: cited from earlier work
[6] = system: 43 kDa DCG-04-labeled cysteine protease band (cathepsin L-like protease or proteases); assay: inhibition of DCG-04 binding (activity-based labeling), 43 kDa band; parameters: species or system Hordeum vulgare; conditions: 2.5 μM DCG-04, pH 5.5, 3 h, week-4 leaf extract; for IC50: densitometric analysis of blots
Description: (§4) The protein extracts of barley leaves obtained 4 weeks after flowering were preincubated with different concentrations of the inhibitors and proteins were labeled with 2.5 μM DCG-04 at pH 5.5 for 3 h. DMSO (solvent for inhibitors) was used as a control.
(§5) Densitometric analysis was based on 2 blots (mean values ± S.D.); data were normalized to the control value (DMSO solvent without inhibitor). The chemical structures of the inhibitors and calculated values of iLogP are shown on the right side of the figure.
(§6) Protein extracts from barley leaves (67 mg of fresh weight) were incubated with 2.5 μM DCG-04 in 0.1 M citrate buffer, pH 5.5, containing 2 mM DTT. When cysteine protease inhibitors E-64 and CA-074 were used, extracts were preincubated with the inhibitors for 10 min before addition of DCG-04. […] After the incubation, reactions were stopped and proteins were precipitated with inclusion of 100 mM NaCl, along with 80% acetone for rapid precipitation. The pellets were mixed with Laemmli loading buffer and boiled for 5 min [63]. Proteins were then separated on ready-made ExpressPlus^TM 4–12% acrylamide gels (GenScript Inc., Piscataway, NJ, USA) in Tris-MOPS SDS-PAGE Running Buffer (GenScript). After SDS-PAGE, proteins were transblotted onto nitrocellulose membrane (BioTrace™ NT nitrocellulose transfer membrane, Cytiva Life Sciences, Marlborough, MA, USA) and blocked for 1 h in 5% non-fat milk in 20 mM Tris-buffered saline (150 mM NaCl), pH 7.4, containing 0.1% Tween-20 (TBST). The membranes were washed 3 × 10 min in TBST and then incubated with streptavidin-HRP (dilution 1:2000 in 1% non-fat milk in TBST) for 1 h and washed again 3 × 10 min in TBST. The membranes were developed using the SuperSignal™ West Pico PLUS Chemiluminescent Substrate (Thermo Scientific, Rockford, IL, USA) and images were obtained using GeneTools by Syngene on a GeneSys imaging platform (Syngene, Frederick, MD, USA). Luminescent signal intensity was calculated by raw volume using GeneTools analysis Version 4.0 software from Syngene.

[7] = molecular target: 38 kDa DCG-04-labeled cysteine protease band (cathepsin B-like protease(s)); assay: inhibition of DCG-04 binding (activity-based labeling), 38 kDa band; parameters: species or system Hordeum vulgare; conditions: 2.5 μM DCG-04, pH 5.5, 3 h, week-4 leaf extract; for IC50: densitometric analysis of blots
Description: as §4, §5, §6

[8] = system: caseinolytic protease activity of extract obtained from week-4 barley leaves; assay: caseinolytic (total) protease activity with casein-FITC in barley leaf extract; type: biochemical, Hordeum vulgare; conditions: casein-FITC substrate; extract of week-4 barley leaves; pH 7.4
Description: as §1, §3

[9] = system: aleurain; parameters: method as in PMID 16669011; conditions: 10 μM leupeptin; cited from earlier work
[10] = pH 7.4, week-4 leaf extract, 'No inhibition up to X' given as > X, read-out: IC50, Z-RR-AMC cleavage
[11] = pH 7.4, week-4 leaf extract, 'No inhibition up to X' given as > X, read-out: IC50, Z-FR-AMC cleavage
[12] = pH 7.4, 'No inhibition up to X' given as > X
[13] = pH 5.5, week-4 leaf extract, read-out: IC50, Z-RR-AMC cleavage
[14] = pH 7.4, week-4 leaf extract, read-out: IC50, Z-RR-AMC cleavage
[15] = pH 5.5, week-4 leaf extract, read-out: IC50, Z-FR-AMC cleavage
[16] = pH 7.4, week-4 leaf extract, read-out: IC50, Z-FR-AMC cleavage
[17] = pH 5.5, 'No inhibition up to X' given as > X

Compound | IC50 [1, 10] [µM] | IC50 [2, 11] [µM] | IC50 [3, 12] [µM] | IC50 [1, 13] [µM] | IC50 [1, 14] [µM] | IC50 [2, 15] [µM] | IC50 [2, 16] [µM] | concentration that totally blocks DCG-04 binding to the 43 kDa band [6] [µM] | IC50 [6] [nM] | also measured
c1cnc2c(c1)ccc1cccnc12 [1,10-Phenanthroline] |  |  |  |  |  |  |  |  |  | IC50 ([1]; pH not given, week-4 leaf extract, read-out: IC50, Z-RR-AMC cleavage): 3100 ± 200 µM; IC50 ([2]; pH not given, week-4 leaf extract, read-out: IC50, Z-FR-AMC cleavage): 8900 ± 300 µM; IC50 ([3]; pH not given): 560 ± 110 µM
CC(C)C[C@H](NC(=O)[C@@H](O)[C@H](N)Cc1ccccc1)C(=O)O [Bestatin] | > 1000 | > 1000 | 580 ± 120 |  |  |  |  |  |  | concentration required for complete inhibition of aminopeptidase [4]: 0.1 mM; concentration required for complete inhibition of aminopeptidase [5]: 0.1 mM
CCCNC(=O)[C@H]1O[C@@H]1C(=O)N[C@H](C(=O)N1CCC[C@H]1C(=O)O)[C@@H](C)CC [CA-074, (2S)-1-[(2S,3S)-3-methyl-2-[[(2S,3S)-3-(propylcarbamoyl)oxirane-2-carbonyl]amino]pentanoyl]pyrrolidine-2-carboxylic acid] |  |  | > 200 | 22.7 ± 5.3 | 80.7 ± 12.4 | 11.3 ± 2.2 | 31 ± 5.6 | > 100 | 26400 ± 2800 | IC50 [3, 17]: > 200 µM; concentration up to which no activity on R-AMC cleavage was seen ([3]; pH not given): > 0.2 mM; IC50 [7]: 1800 ± 600 nM
O=C(NCc1ccccc1)C(Cc1ccccc1)NC(=O)C1OC1C(=O)NCCc1ccc(O)cc1 [CAA0225, (2S,3S)-oxirane-2,3-dicarboxylic acid 2-[((S)-1-benzylcarbamoyl-2-phenyl-ethyl)-amide] 3-{[2-(4-hydroxy-phenyl)-ethyl]-amide}] |  |  | > 200 | 0.0906 ± 0.0122 | 0.0116 ± 0.0035 | 0.12 ± 0.0143 | 0.0117 ± 0.0026 | > 6 | 290 ± 110 | IC50 [3, 17]: > 200 µM; concentration up to which no activity on R-AMC cleavage was seen ([3]; pH not given): > 0.2 mM; effect on DCG-04 binding to the 38 kDa band [7]: did not block binding
CCOC(=O)[C@H]1O[C@@H]1C(=O)N[C@@H](CC(C)C)C(=O)N[C@@H](Cc1ccc(O)cc1)C(=O)NCCCCCC(=O)N[C@@H](CCCCNC(=O)CCCC[C@@H]1SC[C@@H]2NC(=O)N[C@@H]21)C(N)=O [DCG-04] |  |  |  |  |  |  |  |  |  | IC50 ([1]; preliminary experiments, barley leaf extracts, pH not stated, read-out: IC50, proteolytic activity with Z-RR-AMC): 1.8 ± 0.4 µM; IC50 ([2]; preliminary experiments, barley leaf extracts, pH not stated, read-out: IC50, proteolytic activity with Z-FR-AMC): 1.8 ± 0.4 µM
CC(C)C[C@H](NC(=O)[C@H]1O[C@@H]1C(=O)O)C(=O)NCCCCNC(=N)N [E-64, trans-epoxysuccinyl-L-leucylamido-(4-guanidino) butane] |  |  |  | 0.0062 ± 0.0017 | 0.0081 ± 0.0019 | 0.0123 ± 0.0028 | 0.0245 ± 0.0042 | 1 | 48 ± 12.2 | IC50 [8]: 64.4 ± 3.1 nM; inhibition of R-AMC cleavage ([3]; at 0.2–200 µM, pH 7.4): 20–25% inhibition at 0.2–200 µM; inhibition of R-AMC cleavage ([3]; at 1–200 µM, pH 5.5): 40–45% inhibition at 1–200 µM; concentration that totally blocks DCG-04 binding to the 38 kDa band [7]: 1 µM; IC50 [7]: 46.4 ± 9.1 nM
CC(=O)N[C@@H](CC(C)C)C(=O)N[C@@H](CC(C)C)C(=O)N[C@H](C=O)CCCNC(=N)N [Leupeptin] | 610 ± 30 |  | > 400 |  |  |  |  |  |  | inhibition of Z-FR-AMC cleavage ([2]; at 0.4 mM, pH 7.4, week-4 leaf extract): 30% inhibition at 0.4 mM; inhibition of aleurain [9]: ~ 75%
O=S(=O)(F)Cc1ccccc1 [PMSF, Phenylmethylsulfonyl fluoride] |  | > 2000 | > 2000 |  |  |  |  |  |  | inhibition of Z-RR-AMC cleavage ([1]; at 2 mM, pH 7.4, week-4 leaf extract): 30% inhibition at 2 mM
CC(C)CC(=O)N[C@H](C(=O)N[C@H](C(=O)N[C@@H](CC(C)C)[C@@H](O)CC(=O)N[C@@H](C)C(=O)N[C@@H](CC(C)C)[C@@H](O)CC(=O)O)C(C)C)C(C)C [Pepstatin A] (Isovaleryl-VV[Sta]A[Sta]-OH) | > 200 | > 200 | > 200 |  |  |  |  |  |  | 
